Data reported in ChEMBL document CHEMBL2440076, “New triarylpyrazoles as broad-spectrum anticancer agents: design, synthesis, and biological evaluation” (Eur J Med Chem, 2013).

Key:
Assay type in all cases: functional
DU-145 = test: Growth inhibition of human DU145 cells assessed as cell growth at 3X10'-7 M after 48 hrs by sulforhodamine B assay; conditions: DU-145, 48 h, read-out: Activity
COLO 205 = test: Growth inhibition of human COLO205 cells assessed as cell growth at 3X10'-9 M after 48 hrs by sulforhodamine B assay; conditions: COLO 205, 48 h, read-out: Activity
SN12C [1] = test: Growth inhibition of human SN12C cells assessed as cell growth at 3X10'-7 M after 48 hrs by sulforhodamine B assay; conditions: read-out: Activity
MDA-MB-231 = test: Growth inhibition of human MDA-MB-231 cells assessed as cell growth at 3X10'-9 M after 48 hrs by sulforhodamine B assay; conditions: MDA-MB-231, 48 h, read-out: Activity
UO-31 = test: Growth inhibition of human UO31 cells assessed as cell growth at 3X10'-5 M after 48 hrs by sulforhodamine B assay; conditions: UO-31, 48 h, read-out: Activity
LOX IMVI = test: Growth inhibition of human LOXIMVI cells assessed as cell growth at 3X10'-5 M after 48 hrs by sulforhodamine B assay; conditions: read-out: Activity
SW-620 = test: Growth inhibition of human SW620 cells assessed as cell growth at 3X10'-9 M after 48 hrs by sulforhodamine B assay; conditions: SW-620, 48 h, read-out: Activity
MOLT-4 [2] = test: Growth inhibition of human MOLT4 cells assessed as cell growth at 3X10'-8 M after 48 hrs by sulforhodamine B assay; conditions: MOLT-4, 48 h, read-out: Activity
Malme-3M = test: Growth inhibition of human MALME-3M cells assessed as cell growth at 3X10'-6 M after 48 hrs by sulforhodamine B assay; conditions: read-out: Activity
RPMI-8226 [3] = test: Growth inhibition of human RPMI8226 cells assessed as cell growth at 3X10'-5 M after 48 hrs by sulforhodamine B assay; conditions: RPMI-8226, 48 h, read-out: Activity
OVCAR-3 [4] = test: Growth inhibition of human OVCAR3 cells assessed as cell growth at 3X10'-7 M after 48 hrs by sulforhodamine B assay; conditions: OVCAR-3, 48 h, read-out: Activity
RXF 393 = test: Growth inhibition of human RXF393 cells assessed as cell growth at 3X10'-5 M after 48 hrs by sulforhodamine B assay; conditions: RXF 393, 48 h, read-out: Activity
[5] = Growth inhibition of human NCI-ADR-RES cells assessed as cell growth at 3X10'-8 M after 48 hrs by sulforhodamine B assay; conditions: read-out: Activity
SNB-19 = test: Growth inhibition of human SNB19 cells assessed as cell growth at 3X10'-8 M after 48 hrs by sulforhodamine B assay; conditions: SNB-19, 48 h, read-out: Activity
MOLT-4 [6] = test: Growth inhibition of human MOLT4 cells assessed as cell growth at 3X10'-6 M after 48 hrs by sulforhodamine B assay; conditions: MOLT-4, 48 h, read-out: Activity
OVCAR-3 [7] = test: Growth inhibition of human OVCAR3 cells assessed as cell growth at 3X10'-5 M after 48 hrs by sulforhodamine B assay; conditions: OVCAR-3, 48 h, read-out: Activity
NCI-H226 = test: Growth inhibition of human NCI-H226 cells assessed as cell growth at 3X10'-5 M after 48 hrs by sulforhodamine B assay; conditions: NCI-H226, 48 h, read-out: Activity
IGROV-1 = test: Growth inhibition of human IGROV1 cells assessed as cell growth at 3X10'-5 M after 48 hrs by sulforhodamine B assay; conditions: IGROV-1, 48 h, read-out: Activity
UACC-257 = test: Growth inhibition of human UACC257 cells assessed as cell growth at 3X10'-5 M after 48 hrs by sulforhodamine B assay; conditions: UACC-257, 48 h, read-out: Activity
NCI-H322M = test: Growth inhibition of human NCI-H322M cells assessed as cell growth at 3X10'-6 M after 48 hrs by sulforhodamine B assay; conditions: read-out: Activity
SK-MEL-5 [8] = test: Growth inhibition of human SK-MEL-5 cells assessed as cell growth at 3X10'-6 M after 48 hrs by sulforhodamine B assay; conditions: SK-MEL-5, 48 h, read-out: Activity
KM12 = test: Growth inhibition of human KM12 cells assessed as cell growth at 3X10'-6 M after 48 hrs by sulforhodamine B assay; conditions: KM12, 48 h, read-out: Activity
SK-MEL-5 [9] = test: Growth inhibition of human SK-MEL-5 cells assessed as cell growth at 3X10'-7 M after 48 hrs by sulforhodamine B assay; conditions: SK-MEL-5, 48 h, read-out: Activity
HCT-15 = test: Growth inhibition of human HCT15 cells assessed as cell growth at 3X10'-7 M after 48 hrs by sulforhodamine B assay; conditions: HCT-15, 48 h, read-out: Activity
MDA-MB-435 = test: Growth inhibition of human MDA-MB-435 cells assessed as cell growth at 3X10'-9 M after 48 hrs by sulforhodamine B assay; conditions: MDA-MB-435, 48 h, read-out: Activity
786-0 = test: Growth inhibition of human 786-0 cells assessed as cell growth at 3X10'-6 M after 48 hrs by sulforhodamine B assay; conditions: 786-0, 48 h, read-out: Activity
HOP-92 [10] = test: Growth inhibition of human HOP92 cells assessed as cell growth at 3X10'-8 M after 48 hrs by sulforhodamine B assay; conditions: HOP-92, 48 h, read-out: Activity
SK-MEL-2 = test: Growth inhibition of human SK-MEL-2 cells assessed as cell growth at 3X10'-5 M after 48 hrs by sulforhodamine B assay; conditions: SK-MEL-2, 48 h, read-out: Activity
RPMI-8226 [11] = test: Growth inhibition of human RPMI8226 cells assessed as cell growth at 3X10'-8 M after 48 hrs by sulforhodamine B assay; conditions: RPMI-8226, 48 h, read-out: Activity
OVCAR-5 = test: Growth inhibition of human OVCAR5 cells assessed as cell growth at 3X10'-6 M after 48 hrs by sulforhodamine B assay; conditions: OVCAR-5, 48 h, read-out: Activity
SN12C [12] = test: Growth inhibition of human SN12C cells assessed as cell growth at 3X10'-8 M after 48 hrs by sulforhodamine B assay; conditions: read-out: Activity
SR = test: Growth inhibition of human SR cells assessed as cell growth at 3X10'-6 M after 48 hrs by sulforhodamine B assay; conditions: read-out: Activity
UACC-62 = test: Growth inhibition of human UACC62 cells assessed as cell growth at 3X10'-8 M after 48 hrs by sulforhodamine B assay; conditions: UACC-62, 48 h, read-out: Activity
HOP-92 [13] = test: Growth inhibition of human HOP92 cells assessed as cell growth at 3X10'-7 M after 48 hrs by sulforhodamine B assay; conditions: HOP-92, 48 h, read-out: Activity
PC-3 = test: Growth inhibition of human PC3 cells assessed as cell growth at 3X10'-8 M after 48 hrs by sulforhodamine B assay; conditions: PC-3, 48 h, read-out: Activity

| Structure (SMILES) | growth at 0.3 µM (DU-145) | growth at 0.003 µM (COLO 205) | growth at 0.3 µM (SN12C [1]) | growth at 0.003 µM (MDA-MB-231) | growth at 30 µM (UO-31) | growth at 30 µM (LOX IMVI) | growth at 0.003 µM (SW-620) | growth at 0.03 µM (MOLT-4 [2]) | growth at 3 µM (Malme-3M) | growth at 30 µM (RPMI-8226 [3]) | growth at 0.3 µM (OVCAR-3 [4]) | growth at 30 µM (RXF 393) | growth at 0.03 µM [5] | growth at 0.03 µM (SNB-19) | growth at 3 µM (MOLT-4 [6]) | growth at 30 µM (OVCAR-3 [7]) | growth at 30 µM (NCI-H226) | growth at 30 µM (IGROV-1) | growth at 30 µM (UACC-257) | growth at 3 µM (NCI-H322M) | also measured |
| --- | --- | --- | --- | --- | --- | --- | --- | --- | --- | --- | --- | --- | --- | --- | --- | --- | --- | --- | --- | --- | --- |
| O=C(Nc1cccc(-n2cc(-c3ccncc3)c(-c3ccc(Cl)c(O)c3)n2)c1)Nc1cccc(C(F)(F)F)c1 | 97% | 101% | 99% | 103% | 11% | -50% | 98% | 96% | 37% | 5% | 92% | -37% | 97% | 98% | 36% | -25% | 20% | 3% | -18% | 63% | growth at 3 µM (SK-MEL-5 [8]): 17%; growth at 3 µM (KM12): 20%; growth at 0.3 µM (SK-MEL-5 [9]): 99%; growth at 0.3 µM (HCT-15): 96%; growth at 0.003 µM (MDA-MB-435): 102%; growth at 3 µM (786-0): 58%; growth at 0.03 µM (HOP-92 [10]): 77%; growth at 30 µM (SK-MEL-2): -32%; growth at 0.03 µM (RPMI-8226 [11]): 98%; growth at 3 µM (OVCAR-5): 97%; growth at 0.03 µM (SN12C [12]): 98%; growth at 3 µM (SR): 33%; growth at 0.03 µM (UACC-62): 96%; growth at 0.3 µM (HOP-92 [13]): 65%; growth at 0.03 µM (PC-3): 96% |
| COc1cc(-c2nn(-c3cccc(NC(=O)Nc4ccc(Cl)c(C(F)(F)F)c4)c3)cc2-c2ccncc2)ccc1Cl | 103% | 106% | 91% | 89% | -28% | -72% | 101% | 106% | -16% | -7% | 100% | -49% | 108% | 93% | 9% | -46% | 3% | -37% | -53% | 29% | growth at 3 µM (SK-MEL-5 [8]): -5%; growth at 3 µM (KM12): 7%; growth at 0.3 µM (SK-MEL-5 [9]): 87%; growth at 0.3 µM (HCT-15): 95%; growth at 0.003 µM (MDA-MB-435): 98%; growth at 3 µM (786-0): 28%; growth at 0.03 µM (HOP-92 [10]): 74%; growth at 30 µM (SK-MEL-2): -64%; growth at 0.03 µM (RPMI-8226 [11]): 97%; growth at 3 µM (OVCAR-5): 49%; growth at 0.03 µM (SN12C [12]): 94%; growth at 3 µM (SR): -13%; growth at 0.03 µM (UACC-62): 94%; growth at 0.3 µM (HOP-92 [13]): 70%; growth at 0.03 µM (PC-3): 95% |
